test system: alpha-MyHC; assay: alpha-MyHC cytoblot in neonatal rat ventricular myocytes (NRVM); type: cell-based; settings: Rattus norvegicus, Ventricular myocyte, Table 2, 72 hours, concentration giving 50% of maximum response
Experimental: In vitro activity of each compound is measured using the alpha-MyHC cytoblot process. Briefly, neonatal rat ventricular myocytes (NRVM) at 120,000 cells/ml in HyQ DME/High modified culture media supplemented with 10% charcoal/dextran treated FBS, 0.1% Nutridoma-SP, 1:100 MEM non-essential amino acids, 1:50 MEM amino acids solution w/o L-Gln, 1 mM sodium pyruvate and 1:100 P/S/G, are plated on gelatin coated sterile 384-well plates (Costar 3712) at 6,000 cells per well. Cells are incubated overnight at 37° C. in 5% CO2 100% humidity. Following overnight growth the media is changed to HyQ DME/High modified culture media supplemented with 0.3% Nutridoma-SP, 1:100 MEM non-essential amino acids, 1:50 MEM amino acids solution w/o L-Gln, 1 mM sodium pyruvate and 1:100 P/S/G. Cells are then dosed with serial dilutions of each compound in DMSO. Each concentration in the dose range is dosed in quadruplicate. Dosing is done in such a way so that the final DMSO concentration was 0.44%. Compound dilutions are 3-fold with the final top concentration of 10 uM. […] Following dosing, the cells are incubated for 72 hours at 37° C. in 5% CO2 100% humidity and then processed with the cytoblot method. Briefly, cell media is aspirated and cell monolayers washed with PBS and fixed with 100% methanol for 30 minutes. Fixed cells are then blocked with PBS, 0.05% Tween-20, 1% BSA, for 1 hour. Following blocking, cells are incubated with primary alpha-MyHC-specific antibody (1:30 dilution of BA-G5 hybridoma conditioned media, ATCC HB276) for 1 hour. Following incubation with the primary antibody, cells are washed with PBS, 0.05% Tween-20, 1% BSA and incubated with secondary antibody (1:1000 dilution, goat-anti-mouse HRP, Southern Biotech, 1031-05) for 1 hour. Following incubation with the secondary antibody, wells are washed and incubated in SuperSignal, West Dura HRP-luminescence substrate for 30 seconds under shaking at room temperature. Luminescence is measured using a Packard Fusion plate reader. […] RLU values are converted into percent fraction of low control and dose responses are fitted to a sigmoidal 4-parameter equation (XLFit, IDBS) where the EC50 and Max Plateau values were extracted. […] Max Plateau is the […] maximum value determined by the dose response fit.

CCOC(=O)C1=C(CC)Nc2sc(C(=O)c3cccnc3)c(N)c2C1c1ccncc1F (stereo not shown) [Compound 174, 3-amino-6-ethyl-4-(3 fluoro-pyridin-4-yl)-2-(pyridine-3-carbonyl)-4,7 dihydro-thieno[2,3-b]pyridine-5-carboxylic acid ethyl ester] was tested, and the EC50 was 21.9 nM.

same assay, conditions: Rattus norvegicus, Ventricular myocyte, Table 4, 72 hours, concentration giving 50% of maximum response

Going from CCOC(=O)C1=C(C)Nc2sc(C(=O)c3ccccc3)c(N)c2C1(C)c1ccccc1 (stereo not shown) [Compound 206] to CC(=O)C1=C(C)Nc2sc(C(=O)c3ccc(Cl)c(Cl)c3)c(N)c2C1(C)c1cccc(F)c1 (stereo not shown) [Compound 207, 1-[3-amino-2-(3,4 dichloro-benzoyl)-4-(3 fluoro-phenyl)-4,6-dimethyl-4,7 dihydro-thieno[2,3-b]pyridin-5-yl]-ethanone], the EC50 rises from 936 nM to 3340 nM (3.6-fold).

same assay, conditions: Rattus norvegicus, Ventricular myocyte, Table 5, 72 hours, concentration giving 50% of maximum response

CC(=O)C1=C(C)N(C)c2sc(C(=O)c3ccccc3)c(N)c2C1c1ccccc1 (stereo not shown) [Compound 208, 1-(3-amino-2-benzoyl-6,7 dimethyl-4-phenyl-4,7 dihydro-thieno[2,3-b]pyridin-5-yl)-ethanone] gave an EC50 of 3430 nM.

same assay, conditions: Table 2, 72 hours, fitted maximum, percent fraction of low control (vehicle), in %

Compared with COCC1=C(C(=O)OC)C(c2ccccc2)c2c(sc(C(=O)c3ccc(Cl)c(Cl)c3)c2N)N1 (stereo not shown) [Compound 120], COC(=O)C1=C(C(C)(C)C)Nc2sc(C(=O)c3ccc(Cl)c(Cl)c3)c(N)c2C1c1ccccc1 (stereo not shown) [Compound 131] is higher in “Max Plateau” value: 140.79 for the first, 158.97 for the second.

Compared with COC(=O)C1=C(C2CC2)Nc2sc(C(=O)c3ccc(Cl)c(Cl)c3)c(N)c2C1c1ccccc1 (stereo not shown) [Compound 133], COC(=O)C1=C(C2CC2)Nc2sc(C(=O)c3ccc(Cl)c(Cl)c3)c(N)c2C1c1ccccc1F (stereo not shown) [Compound 144] is higher in “Max Plateau” value: 180.24 for the first, 187.17 for the second.

Compared with COC(=O)C1=C(C(C)C)Nc2sc(C(=O)c3ccc(Cl)c(Cl)c3)c(N)c2C1c1cccc([N+](=O)[O-])c1 (stereo not shown) [Compound 134], CC1=C(C(=O)OC(C)C)C(c2ccccc2)c2c(sc(C(=O)c3ccc(Cl)c(Cl)c3)c2N)N1 (stereo not shown) [Compound 135] is higher in “Max Plateau” value: 98.33 for the first, 186.32 for the second.

Compared with CCC1=C(C(=O)OC)C(c2c(F)cccc2F)c2c(sc(C(=O)c3ccc(Cl)c(Cl)c3)c2N)N1 (stereo not shown) [Compound 137], CCC1=C(C(=O)OC)C(c2ccc(F)cc2F)c2c(sc(C(=O)c3ccc(Cl)c(Cl)c3)c2N)N1 (stereo not shown) [Compound 153] is higher in “Max Plateau” value: 213.90 for the first, 234.66 for the second.

First: CCC1=C(C(=O)OC)C(c2ccccc2)c2c(sc(C(=O)c3cccc([N+](=O)[O-])c3)c2N)N1 (stereo not shown) [Compound 139]
Second: CCC1=C(C(=O)OC)C(c2ccccc2F)c2c(sc(C(=O)c3cccc([N+](=O)[O-])c3)c2N)N1 (stereo not shown) [Compound 140]
The “Max Plateau” value of the first is higher: 281.08 for the first, 266.63 for the second.

Going from CCC1=C(C(=O)OC)C(c2c(F)cccc2F)c2c(sc(C(=O)c3cccc([N+](=O)[O-])c3)c2N)N1 (stereo not shown) [Compound 141] to CCC1=C(C(=O)OC)C(c2cccc(Cl)c2F)c2c(sc(C(=O)c3cccc([N+](=O)[O-])c3)c2N)N1 (stereo not shown) [Compound 156], the “Max Plateau” value falls from 261.69 to 243.78.

Going from CCOC(=O)C1=C(CC)Nc2sc(C(=O)c3ccc(Cl)c(Cl)c3)c(N)c2C1c1ccccc1F (stereo not shown) [Compound 142] to CCOC(=O)C1=C(CC)Nc2sc(C(=O)c3ccc(Cl)c(Cl)c3)c(N)c2C1c1ccncc1F (stereo not shown) [Compound 168], the “Max Plateau” value rises from 194.32 to 239.64.

Compared with CCC1=C(C(=O)OC)C(c2ccccc2)c2c(sc(C(=O)c3cccc(C#N)c3)c2N)N1 (stereo not shown) [Compound 143], CCC1=C(C(=O)OC)C(c2ccccc2F)c2c(sc(C(=O)c3cccc(C#N)c3)c2N)N1 (stereo not shown) [Compound 164] is lower in “Max Plateau” value: 290.53 for the first, 279.90 for the second.

Going from CCOC(=O)C1=C(CC)Nc2sc(C(=O)c3ccc(Cl)cc3Cl)c(N)c2C1c1ccccc1 (stereo not shown) [Compound 145] to CCOC(=O)C1=C(CC)Nc2sc(C(=O)c3cc(Cl)ccc3Cl)c(N)c2C1c1ccccc1 (stereo not shown) [Compound 146], the “Max Plateau” value falls from 224.48 to 213.49.

Compared with CCOC(=O)C1=C(CC)Nc2sc(C(=O)c3cc(C(F)(F)F)cc(C(F)(F)F)c3)c(N)c2C1c1ccccc1 (stereo not shown) [Compound 149], CCOC(=O)C1=C(CC)Nc2sc(C(=O)c3cc(F)cc(F)c3)c(N)c2C1c1ccccc1 (stereo not shown) [Compound 151] is higher in “Max Plateau” value: 207.18 for the first, 273.61 for the second.

Compared with CCC1=C(C(=O)OC)C(c2ccccc2F)c2c(sc(C(=O)c3ccc(Cl)c(C)c3)c2N)N1 (stereo not shown) [Compound 150], CCC1=C(C(=O)OC)C(c2ccccc2F)c2c(sc(C(=O)c3cccc(Cl)c3)c2N)N1 (stereo not shown) [Compound 167] is higher in “Max Plateau” value: 228.28 for the first, 255.95 for the second.

First: CCOC(=O)C1=C(CC)Nc2sc(C(=O)c3cccc(C(=O)O)c3)c(N)c2C1c1ccccc1 (stereo not shown) [Compound 152]
Second: CCC1=C(C(=O)OCC(C)C)C(c2ccccc2)c2c(sc(C(=O)c3ccc(Cl)c(Cl)c3)c2N)N1 (stereo not shown) [Compound 161]
The “Max Plateau” value of the first is higher: 238.69 for the first, 232.35 for the second.

First: COC(=O)C1=C(CCc2ccccc2)Nc2sc(C(=O)c3ccc(Cl)c(Cl)c3)c(N)c2C1c1ccccc1F (stereo not shown) [Compound 154]
Second: CCC1=C(C(=O)OC)C(c2cccc(Cl)c2F)c2c(sc(C(=O)c3ccc(Cl)c(Cl)c3)c2N)N1 (stereo not shown) [Compound 155]
The “Max Plateau” value of the first is lower: 125.87 for the first, 224.86 for the second.

Compared with CCC1=C(C(=O)OC2CCCCC2)C(c2ccccc2)c2c(sc(C(=O)c3ccc(Cl)c(Cl)c3)c2N)N1 (stereo not shown) [Compound 160], CCOC(=O)C1=C(CC)Nc2sc(C(=O)c3ccc(Cl)c(Cl)c3)c(N)c2C1c1ccncc1Cl (stereo not shown) [Compound 169] is higher in “Max Plateau” value: 186.95 for the first, 261.04 for the second.

Going from CCC1=C(C(=O)OC)C(c2cc(F)cc(F)c2)c2c(sc(C(=O)c3ccc(F)c(F)c3)c2N)N1 (stereo not shown) [Compound 170] to CCC1=C(C(=O)OC)C(c2cc(F)cc(F)c2)c2c(sc(C(=O)c3ccccc3)c2N)N1 (stereo not shown) [Compound 172], the “Max Plateau” value rises from 262.16 to 304.08.

For CCOC(=O)C1=C(CC)Nc2sc(C(=O)c3ccc(F)c(F)c3)c(N)c2C1c1ccncc1F (stereo not shown) [Compound 173], the “Max Plateau” value was 257.43.

same assay, conditions: Table 4, 72 hours, concentration giving 50% of maximum response

CCOC(=O)C1=C(C)Nc2sc(C(=O)c3cccc(Br)c3)c(N)c2C1(C)c1ccccc1 (stereo not shown) [Compound 197] gave an EC50 of 792 nM.

same assay, conditions: Table 4, 72 hours, fitted maximum, percent fraction of low control (vehicle), in %

For CCOC(=O)C1=C(C)Nc2sc(C(=O)c3cccc(Br)c3)c(N)c2C1(C)c1ccccc1 (stereo not shown) [Compound 197], the “Max Plateau” value was 159.55 ± 10.94.

From patent US20090306373A1, “4,7-DIHYDROTHIENO[2,3-B]PYRIDINE COMPOUNDS AND PHARMACEUTICAL COMPOSITIONS” (priority 2005, published 2009)
